Experiments:
wheat [1] = assay: Test A postemergence; type: in vivo, Triticum aestivum
Method in brief: (§1)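 Greenhouse pot test, loam/sand soil. Formulation: non-phytotoxic solvent mix plus surfactant. Pre: directed spray onto soil after sowing. Post: plants at 1–2 leaf, 2–10 cm. Rated visually vs untreated controls at ~10 d, 0 (no effect) to 100 (complete control).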

barnyardgrass [2] = assay: Test A postemergence; type: in vivo, Echinochloa crus-galli
Method in brief: as §1

velvetleaf [3] = assay: Test A postemergence; type: in vivo, Abutilon theophrasti
Method in brief: as §1

pigweed [4] = assay: Test A postemergence; type: in vivo, Amaranthus retroflexus
Method in brief: as §1

corn [5] = assay: Test A postemergence; type: in vivo, Zea mays
Method in brief: as §1

large (Lg) crabgrass [6] = assay: Test A postemergence; type: in vivo, Digitaria sanguinalis
Method in brief: as §1

large (Lg) crabgrass [7] = assay: Test A preemergence; type: in vivo, Digitaria sanguinalis; conditions: for Plant response rating, Crabgrass, Large: 125 g ai/ha; for Crabgrass, Large plant response rating: 500 g ai/ha
Method in brief: as §1

morningglory [8] = assay: Test A postemergence; type: in vivo, Ipomoea spp.
Method in brief: as §1

sedge, umbrella = assay: Test B flooded paddy test; type: in vivo, Cyperus difformis; conditions: Flood, 250 g ai/ha; 0 to 100 scale where 0 is no effect and 100 is complete control
Method in brief: (§2)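 Visual ratings on a 0 to 100 scale, where 100 means complete control, compared treated plants with controls after 13 to 15 days in a greenhouse. Treatment went into paddy water 3 cm deep over the soil, applied to plants at the 2-leaf stage.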

wheat [9] = assay: Test A preemergence; type: in vivo, Triticum aestivum; conditions: for Wheat plant response rating: 500 g ai/ha
Method in brief: as §1

giant foxtail [10] = assay: Test A preemergence; type: in vivo, Setaria faberii; conditions: for Plant response rating, Foxtail, Giant: 125 g ai/ha; for Foxtail, Giant plant response rating: 500 g ai/ha
Method in brief: as §1

rice = assay: Test B flooded paddy test; type: in vivo, Oryza sativa; conditions: Flood, 250 g ai/ha; 0 to 100 scale where 0 is no effect and 100 is complete control
Method in brief: as §2

giant foxtail [11] = assay: Test A postemergence; type: in vivo, Setaria faberii
Method in brief: as §1

pigweed [12] = assay: Test A preemergence; type: in vivo, Amaranthus retroflexus; conditions: for Pigweed plant response rating: 500 g ai/ha
Method in brief: as §1

corn [13] = assay: Test A preemergence; type: in vivo, Zea mays; conditions: for Plant response rating, Corn: 125 g ai/ha; for Corn plant response rating: 500 g ai/ha
Method in brief: as §1

velvetleaf [14] = assay: Test A preemergence; type: in vivo, Abutilon theophrasti; conditions: for Velvetleaf plant response rating: 500 g ai/ha
Method in brief: as §1

morningglory [15] = assay: Test A preemergence; type: in vivo, Ipomoea spp.; conditions: for Morningglory plant response rating: 500 g ai/ha
Method in brief: as §1

Heteranthera limosa = assay: Test B flooded paddy test; type: in vivo; conditions: Flood, 250 g ai/ha; 0 to 100 scale where 0 is no effect and 100 is complete control
Method in brief: as §2

barnyardgrass [16] = assay: Test B flooded paddy test; type: in vivo, Echinochloa crus-galli; conditions: Flood, 250 g ai/ha; 0 to 100 scale where 0 is no effect and 100 is complete control
Method in brief: as §2

barnyardgrass [17] = assay: Test A preemergence; type: in vivo, Echinochloa crus-galli; conditions: for Plant response rating, Barnyardgrass: 125 g ai/ha; for Barnyardgrass plant response rating: 500 g ai/ha
Method in brief: as §1

[18] = 125 g ai/ha, 0 to 100 scale where 0 is no effect and 100 is complete control
[19] = 500 g ai/ha, 0 to 100 scale where 0 is no effect and 100 is complete control
[20] = 0 to 100 scale where 0 is no effect and 100 is complete control
[21] = 500 g ai/ha, 0 to 100 scale, 0 no effect, 100 complete control
[22] = 0 to 100 scale, 0 no effect, 100 complete control, approx. 10 days

In the case of `O=Cc1cccc(Oc2ncc(Cl)cn2)c1-n1cc(C(F)(F)F)cn1` [Compound 171], the “Wheat plant response rating” value (wheat [1]; [18]) is reported as 0, the “Plant response rating, Wheat” value (wheat [1]; [19]) is reported as 0 and the “Barnyardgrass plant response rating” value (barnyardgrass [2]; [18]) is reported as 0. For the same compound, the “Plant response rating, Barnyardgrass” value (barnyardgrass [2]; [19]) was 0, the “Velvetleaf plant response rating” value (velvetleaf [3]; [18]) was 40 and the “Plant response rating, Velvetleaf” value (velvetleaf [3]; [19]) was 70. For the same compound, the “Pigweed plant response rating” value (pigweed [4]; [18]) was 100, the “Plant response rating, Pigweed” value (pigweed [4]; [19]) was 100 and the “Corn plant response rating” value (corn [5]; [18]) was 0. The “Plant response rating, Corn” value (corn [5]; [19]) was 0, the “Crabgrass, Large plant response rating” value (large (Lg) crabgrass [6]; [18]) was 0 and the “Plant response rating, Crabgrass, Large” value (large (Lg) crabgrass [6]; [19]) was 0. For the same compound, the “Plant response rating, Crabgrass, Large” value (large (Lg) crabgrass [7]; [20]) was 0, the “Crabgrass, Large plant response rating” value (large (Lg) crabgrass [7]; [20]) was 0 and the “Morningglory plant response rating” value (morningglory [8]; [18]) was 0. For the same compound, the “Plant response rating, Morningglory” value (morningglory [8]; [19]) was 0, the “Plant response rating, Sedge, Umbrella” value (sedge, umbrella) was 0 and the “Wheat plant response rating (0 to 100 scale)” value (wheat [9]; 125 g ai/ha) was 0. For the same compound, the “Wheat plant response rating” value (wheat [9]; [20]) was 0, the “Plant response rating, Foxtail, Giant” value (giant foxtail [10]; [20]) was 0 and the “Foxtail, Giant plant response rating” value (giant foxtail [10]; [20]) was 0. For the same compound, the “Plant response rating, Rice” value (rice) was 0, the “Foxtail, Giant plant response rating” value (giant foxtail [11]; [18]) was 0 and the “Plant response rating, Foxtail, Giant” value (giant foxtail [11]; [19]) was 0. For the same compound, the “Pigweed plant response rating (0 to 100 scale)” value (pigweed [12]; 125 g ai/ha) was 90, the “Pigweed plant response rating” value (pigweed [12]; [20]) was 100 and the “Plant response rating, Corn” value (corn [13]; [20]) was 0. For the same compound, the “Corn plant response rating” value (corn [13]; [20]) was 0, the “Velvetleaf plant response rating (0 to 100 scale)” value (velvetleaf [14]; 125 g ai/ha) was 30 and the “Velvetleaf plant response rating” value (velvetleaf [14]; [20]) was 70. For the same compound, the “Morningglory plant response rating (0 to 100 scale)” value (morningglory [15]; 125 g ai/ha) was 0, the “Morningglory plant response rating” value (morningglory [15]; [20]) was 0 and the “Plant response rating, Ducksalad” value (Heteranthera limosa) was 0. The “Plant response rating, Barnyardgrass” value (barnyardgrass [16]) was 0, the “Plant response rating, Barnyardgrass” value (barnyardgrass [17]; [20]) was 20 and the “Barnyardgrass plant response rating” value (barnyardgrass [17]; [20]) was 60.

With `Cc1cnn(-c2ccccc2Oc2ncc(Cl)cn2)c1` [Compound 23] the “Plant response rating, Wheat” value (wheat [1]; [18]) was 0, the “Plant response rating, Wheat” value (wheat [1]; [21]) was 20 and the “Plant response rating, Barnyardgrass” value (barnyardgrass [2]; [18]) was 0. For the same compound, the “Plant response rating, Barnyardgrass” value (barnyardgrass [2]; [21]) was 40, the “Plant response rating, Velvetleaf” value (velvetleaf [3]; [18]) was 80 and the “Plant response rating, Velvetleaf” value (velvetleaf [3]; [21]) was 100. The “Plant response rating, Pigweed” value (pigweed [4]; [18]) was 90, the “Plant response rating, Pigweed” value (pigweed [4]; [21]) was 100 and the “Plant response rating, Corn” value (corn [5]; [18]) was 0. The “Plant response rating, Corn” value (corn [5]; [21]) was 60, the “Plant response rating, Crabgrass, Large” value (large (Lg) crabgrass [6]; [18]) was 20 and the “Plant response rating, Crabgrass, Large” value (large (Lg) crabgrass [6]; [21]) was 60. The “Plant response rating, Crabgrass, Large” value (large (Lg) crabgrass [7]; [20]) was 90, the “Crabgrass, Large plant response rating” value (large (Lg) crabgrass [7]; [22]) was 90 and the “Plant response rating, Morningglory” value (morningglory [8]; [18]) was 50. The “Plant response rating, Morningglory” value (morningglory [8]; [21]) was 90, the “Plant response rating, Sedge, Umbrella” value (sedge, umbrella) was 70 and the “Plant response rating, Wheat” value (wheat [9]; [18]) was 0. For the same compound, the “Wheat plant response rating” value (wheat [9]; [22]) was 0, the “Plant response rating, Foxtail, Giant” value (giant foxtail [10]; [20]) was 70 and the “Foxtail, Giant plant response rating” value (giant foxtail [10]; [22]) was 90. The “Plant response rating, Rice” value (rice) was 35, the “Plant response rating, Foxtail, Giant” value (giant foxtail [11]; [18]) was 40 and the “Plant response rating, Foxtail, Giant” value (giant foxtail [11]; [21]) was 90. The “Plant response rating, Pigweed” value (pigweed [12]; [18]) was 100, the “Pigweed plant response rating” value (pigweed [12]; [22]) was 100 and the “Plant response rating, Corn” value (corn [13]; [20]) was 0. The “Corn plant response rating” value (corn [13]; [22]) was 20, the “Plant response rating, Velvetleaf” value (velvetleaf [14]; [18]) was 90 and the “Velvetleaf plant response rating” value (velvetleaf [14]; [22]) was 90. For the same compound, the “Plant response rating, Morningglory” value (morningglory [15]; [18]) was 0, the “Morningglory plant response rating” value (morningglory [15]; [22]) was 0 and the “Plant response rating, Ducksalad” value (Heteranthera limosa) was 80. The “Plant response rating, Barnyardgrass” value (barnyardgrass [16]) was 20, the “Plant response rating, Barnyardgrass” value (barnyardgrass [17]; [20]) was 20 and the “Barnyardgrass plant response rating” value (barnyardgrass [17]; [22]) was 50.

For `N#Cc1cnc(Oc2cccc(C=O)c2-n2cc(Br)cn2)nc1` [Compound 174], the “Wheat plant response rating” value (wheat [1]; [18]) was 0, the “Plant response rating, Wheat” value (wheat [1]; [19]) was 0 and the “Barnyardgrass plant response rating” value (barnyardgrass [2]; [18]) was 0. The “Plant response rating, Barnyardgrass” value (barnyardgrass [2]; [19]) was 0, the “Velvetleaf plant response rating” value (velvetleaf [3]; [18]) was 0 and the “Plant response rating, Velvetleaf” value (velvetleaf [3]; [19]) was 0. The “Pigweed plant response rating” value (pigweed [4]; [18]) was 0, the “Plant response rating, Pigweed” value (pigweed [4]; [19]) was 0 and the “Corn plant response rating” value (corn [5]; [18]) was 0. For the same compound, the “Plant response rating, Corn” value (corn [5]; [19]) was 0, the “Crabgrass, Large plant response rating” value (large (Lg) crabgrass [6]; [18]) was 0 and the “Plant response rating, Crabgrass, Large” value (large (Lg) crabgrass [6]; [19]) was 0. The “Plant response rating, Crabgrass, Large” value (large (Lg) crabgrass [7]; [20]) was 0, the “Crabgrass, Large plant response rating” value (large (Lg) crabgrass [7]; [20]) was 0 and the “Morningglory plant response rating” value (morningglory [8]; [18]) was 0. The “Plant response rating, Morningglory” value (morningglory [8]; [19]) was 0, the “Plant response rating, Sedge, Umbrella” value (sedge, umbrella) was 0 and the “Wheat plant response rating (0 to 100 scale)” value (wheat [9]; 125 g ai/ha) was 0. The “Wheat plant response rating” value (wheat [9]; [20]) was 0, the “Plant response rating, Foxtail, Giant” value (giant foxtail [10]; [20]) was 0 and the “Foxtail, Giant plant response rating” value (giant foxtail [10]; [20]) was 0. For the same compound, the “Plant response rating, Rice” value (rice) was 0, the “Foxtail, Giant plant response rating” value (giant foxtail [11]; [18]) was 0 and the “Plant response rating, Foxtail, Giant” value (giant foxtail [11]; [19]) was 0. The “Pigweed plant response rating (0 to 100 scale)” value (pigweed [12]; 125 g ai/ha) was 0, the “Pigweed plant response rating” value (pigweed [12]; [20]) was 0 and the “Plant response rating, Corn” value (corn [13]; [20]) was 0. The “Corn plant response rating” value (corn [13]; [20]) was 0, the “Velvetleaf plant response rating (0 to 100 scale)” value (velvetleaf [14]; 125 g ai/ha) was 0 and the “Velvetleaf plant response rating” value (velvetleaf [14]; [20]) was 0. The “Morningglory plant response rating (0 to 100 scale)” value (morningglory [15]; 125 g ai/ha) was 0, the “Morningglory plant response rating” value (morningglory [15]; [20]) was 0 and the “Plant response rating, Ducksalad” value (Heteranthera limosa) was 0. The “Plant response rating, Barnyardgrass” value (barnyardgrass [16]) was 0, the “Plant response rating, Barnyardgrass” value (barnyardgrass [17]; [20]) was 0 and the “Barnyardgrass plant response rating” value (barnyardgrass [17]; [20]) was 0.

Reference: US9695155B2, “Herbicidal substituted pyrimidinyloxy benzene compounds” (E. I. DU PONT DE NEMOURS AND COMPANY, priority 2013, dated 2017)
